Measured values from US11981658B2, “Substituted aminopyridine compounds as EGFR inhibitors” (YUHAN CORPORATION, priority 2021, dated 2024).
Read-outs that look alike come from different tables or passages of the source.

Columns and labels:
[1] = biological target: EGFR Del19/T790M/C797S (Homo sapiens, UniProt P00533, C797S/DEL746-750/T790M); assay: Biochemical EGFR kinase inhibition assay (Lance Ultra TR-FRET), triple mutant del19/T790M/C797S
Summary of the method: (§1)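 Kinase activity is measured by TR-FRET phosphopeptide detection. Compounds span 0.003 μM to 10 μM; the 1 h reaction at room temperature is quenched with EDTA, then labelled antibody (2 nM) is incubated 60 min before reading.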

[2] = biological target: EGFR Del19/C797S (Homo sapiens, UniProt P00533, C797S/DEL746-750); assay: Biochemical EGFR kinase inhibition assay (Lance Ultra TR-FRET), double mutant del19/C797S
Summary of the method: as §1

[3] = biological target: EGFR L858R/T790M/C797S (Homo sapiens, UniProt P00533, C797S/L858R/T790M); assay: Biochemical EGFR kinase inhibition assay (Lance Ultra TR-FRET), triple mutant L858R/T790M/C797S
EGFR L858R/T790M/C797S, sequence (P00533 25-1210 T790M/C797S/L858R): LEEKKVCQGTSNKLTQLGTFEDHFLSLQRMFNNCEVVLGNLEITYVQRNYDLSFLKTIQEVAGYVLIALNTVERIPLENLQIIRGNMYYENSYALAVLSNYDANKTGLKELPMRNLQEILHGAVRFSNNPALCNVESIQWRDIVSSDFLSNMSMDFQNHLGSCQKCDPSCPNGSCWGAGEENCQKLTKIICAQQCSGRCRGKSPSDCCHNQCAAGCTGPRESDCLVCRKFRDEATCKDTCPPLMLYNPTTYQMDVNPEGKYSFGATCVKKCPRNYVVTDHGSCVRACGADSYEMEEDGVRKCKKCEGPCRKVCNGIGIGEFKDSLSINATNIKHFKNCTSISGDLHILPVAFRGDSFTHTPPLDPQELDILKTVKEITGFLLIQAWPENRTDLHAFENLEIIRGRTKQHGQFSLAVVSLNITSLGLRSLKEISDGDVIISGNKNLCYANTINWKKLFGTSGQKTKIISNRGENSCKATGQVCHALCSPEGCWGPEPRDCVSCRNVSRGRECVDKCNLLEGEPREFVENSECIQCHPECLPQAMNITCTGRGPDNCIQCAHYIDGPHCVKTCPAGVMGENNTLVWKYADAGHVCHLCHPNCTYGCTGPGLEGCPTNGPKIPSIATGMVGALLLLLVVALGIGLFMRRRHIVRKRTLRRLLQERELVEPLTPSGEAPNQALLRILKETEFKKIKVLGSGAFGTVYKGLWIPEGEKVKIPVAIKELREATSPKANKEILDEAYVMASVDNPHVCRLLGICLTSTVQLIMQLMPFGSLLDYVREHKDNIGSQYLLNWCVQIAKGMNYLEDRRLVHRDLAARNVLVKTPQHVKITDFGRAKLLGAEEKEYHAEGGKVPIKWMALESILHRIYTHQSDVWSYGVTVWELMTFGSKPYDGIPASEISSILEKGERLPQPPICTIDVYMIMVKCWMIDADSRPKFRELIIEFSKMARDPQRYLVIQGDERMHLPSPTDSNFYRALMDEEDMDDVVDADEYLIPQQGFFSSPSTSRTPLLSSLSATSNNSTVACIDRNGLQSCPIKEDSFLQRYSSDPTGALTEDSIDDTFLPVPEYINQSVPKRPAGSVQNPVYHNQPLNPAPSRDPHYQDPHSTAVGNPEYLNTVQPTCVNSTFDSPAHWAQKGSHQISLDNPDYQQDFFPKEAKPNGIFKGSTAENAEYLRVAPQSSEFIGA
Summary of the method: as §1

[4] = biological target: EGFR wildtype (WT) (Homo sapiens, UniProt P00533); assay: Biochemical EGFR kinase inhibition assay (Lance Ultra TR-FRET), wildtype
EGFR wildtype (WT), sequence (P00533 25-1210): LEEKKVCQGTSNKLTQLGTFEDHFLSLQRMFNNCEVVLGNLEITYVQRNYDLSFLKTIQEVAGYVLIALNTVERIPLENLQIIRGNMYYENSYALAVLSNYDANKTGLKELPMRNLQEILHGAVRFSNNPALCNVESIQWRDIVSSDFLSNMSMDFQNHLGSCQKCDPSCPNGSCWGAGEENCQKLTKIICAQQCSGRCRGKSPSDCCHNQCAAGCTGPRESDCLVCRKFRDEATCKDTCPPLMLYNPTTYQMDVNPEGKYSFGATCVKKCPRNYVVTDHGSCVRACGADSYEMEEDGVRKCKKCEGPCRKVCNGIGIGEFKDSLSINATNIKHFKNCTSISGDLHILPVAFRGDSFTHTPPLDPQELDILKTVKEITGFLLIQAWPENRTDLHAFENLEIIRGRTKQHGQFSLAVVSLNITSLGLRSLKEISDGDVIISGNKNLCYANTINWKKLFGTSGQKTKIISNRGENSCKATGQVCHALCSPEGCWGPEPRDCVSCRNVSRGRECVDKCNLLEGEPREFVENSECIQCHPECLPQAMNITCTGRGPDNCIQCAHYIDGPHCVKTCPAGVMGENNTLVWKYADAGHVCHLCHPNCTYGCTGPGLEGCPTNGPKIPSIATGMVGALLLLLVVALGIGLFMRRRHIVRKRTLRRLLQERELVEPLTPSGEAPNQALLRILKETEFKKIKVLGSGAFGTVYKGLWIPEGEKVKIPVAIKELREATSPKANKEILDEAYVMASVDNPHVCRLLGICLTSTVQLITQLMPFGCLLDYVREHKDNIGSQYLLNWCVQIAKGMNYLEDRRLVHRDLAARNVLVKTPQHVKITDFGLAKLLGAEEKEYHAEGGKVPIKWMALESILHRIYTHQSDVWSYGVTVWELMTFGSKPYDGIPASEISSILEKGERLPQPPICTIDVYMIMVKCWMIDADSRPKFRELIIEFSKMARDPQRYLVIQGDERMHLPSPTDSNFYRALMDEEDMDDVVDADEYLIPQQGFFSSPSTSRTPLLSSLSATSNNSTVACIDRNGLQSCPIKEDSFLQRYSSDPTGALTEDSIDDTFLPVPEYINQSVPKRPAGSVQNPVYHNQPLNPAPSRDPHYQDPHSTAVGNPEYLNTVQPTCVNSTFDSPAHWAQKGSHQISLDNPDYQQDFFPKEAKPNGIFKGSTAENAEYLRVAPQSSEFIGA
Summary of the method: as §1

[5] = biological target: EGFR L858R/C797S (Homo sapiens, UniProt P00533, C797S/L858R); assay: Biochemical EGFR kinase inhibition assay (Lance Ultra TR-FRET), double mutant L858R/C797S
EGFR L858R/C797S, sequence (P00533 25-1210 C797S/L858R): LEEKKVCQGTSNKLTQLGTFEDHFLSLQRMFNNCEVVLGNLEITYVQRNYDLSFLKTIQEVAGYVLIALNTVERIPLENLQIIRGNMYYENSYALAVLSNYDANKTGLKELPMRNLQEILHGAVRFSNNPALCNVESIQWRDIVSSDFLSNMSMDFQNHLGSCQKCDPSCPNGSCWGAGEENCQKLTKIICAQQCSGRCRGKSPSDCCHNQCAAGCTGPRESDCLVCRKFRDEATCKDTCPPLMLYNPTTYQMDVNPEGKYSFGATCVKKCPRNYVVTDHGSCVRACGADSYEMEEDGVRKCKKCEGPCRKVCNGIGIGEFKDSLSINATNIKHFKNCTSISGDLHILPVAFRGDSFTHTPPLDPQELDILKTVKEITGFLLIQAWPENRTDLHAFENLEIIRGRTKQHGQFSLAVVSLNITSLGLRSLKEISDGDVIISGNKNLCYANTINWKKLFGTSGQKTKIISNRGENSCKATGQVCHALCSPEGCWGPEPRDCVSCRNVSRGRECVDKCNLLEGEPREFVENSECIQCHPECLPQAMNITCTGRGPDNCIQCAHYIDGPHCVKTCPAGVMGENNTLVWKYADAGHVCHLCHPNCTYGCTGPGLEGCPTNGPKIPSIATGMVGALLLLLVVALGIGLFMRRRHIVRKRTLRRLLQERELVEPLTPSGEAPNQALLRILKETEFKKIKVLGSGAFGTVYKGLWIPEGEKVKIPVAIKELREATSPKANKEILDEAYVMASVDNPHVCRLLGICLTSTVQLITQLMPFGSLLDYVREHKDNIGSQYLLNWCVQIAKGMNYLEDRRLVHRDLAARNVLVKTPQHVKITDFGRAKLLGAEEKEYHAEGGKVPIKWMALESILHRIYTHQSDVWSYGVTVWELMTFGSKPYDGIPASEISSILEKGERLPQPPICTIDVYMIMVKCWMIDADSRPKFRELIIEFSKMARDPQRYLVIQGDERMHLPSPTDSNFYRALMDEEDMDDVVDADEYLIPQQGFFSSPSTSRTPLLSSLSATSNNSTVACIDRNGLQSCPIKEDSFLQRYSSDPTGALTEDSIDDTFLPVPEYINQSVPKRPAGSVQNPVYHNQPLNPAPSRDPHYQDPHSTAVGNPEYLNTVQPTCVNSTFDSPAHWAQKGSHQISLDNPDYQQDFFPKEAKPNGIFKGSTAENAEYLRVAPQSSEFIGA
Summary of the method: as §1

[6] = ATP at Km, read-out: IC50 Del19/T790M/C797S (nM), Km ATP
[7] = IC50 Del19/T790M/C797S (nM), 100 μM ATP
[8] = ATP at Km, read-out: IC50 Del19/C797S (nM), Km ATP
[9] = IC50 Del19/C797S (nM), 100 μM ATP
[10] = ATP at Km, read-out: IC50 L858R/T790M/C797S (nM), Km ATP
[11] = IC50 L858R/T790M/C797S (nM), 100 μM ATP
[12] = ATP at Km, read-out: IC50 WT (nM), Km ATP
[13] = ATP at Km, read-out: IC50 L858R/C797S (nM), Km ATP
[14] = IC50 L858R/C797S (nM), 100 μM ATP

EGFR Del19/T790M/C797S, sequence (P00533 with tags, fused parts or gaps DEL746-750/T790M/C797S): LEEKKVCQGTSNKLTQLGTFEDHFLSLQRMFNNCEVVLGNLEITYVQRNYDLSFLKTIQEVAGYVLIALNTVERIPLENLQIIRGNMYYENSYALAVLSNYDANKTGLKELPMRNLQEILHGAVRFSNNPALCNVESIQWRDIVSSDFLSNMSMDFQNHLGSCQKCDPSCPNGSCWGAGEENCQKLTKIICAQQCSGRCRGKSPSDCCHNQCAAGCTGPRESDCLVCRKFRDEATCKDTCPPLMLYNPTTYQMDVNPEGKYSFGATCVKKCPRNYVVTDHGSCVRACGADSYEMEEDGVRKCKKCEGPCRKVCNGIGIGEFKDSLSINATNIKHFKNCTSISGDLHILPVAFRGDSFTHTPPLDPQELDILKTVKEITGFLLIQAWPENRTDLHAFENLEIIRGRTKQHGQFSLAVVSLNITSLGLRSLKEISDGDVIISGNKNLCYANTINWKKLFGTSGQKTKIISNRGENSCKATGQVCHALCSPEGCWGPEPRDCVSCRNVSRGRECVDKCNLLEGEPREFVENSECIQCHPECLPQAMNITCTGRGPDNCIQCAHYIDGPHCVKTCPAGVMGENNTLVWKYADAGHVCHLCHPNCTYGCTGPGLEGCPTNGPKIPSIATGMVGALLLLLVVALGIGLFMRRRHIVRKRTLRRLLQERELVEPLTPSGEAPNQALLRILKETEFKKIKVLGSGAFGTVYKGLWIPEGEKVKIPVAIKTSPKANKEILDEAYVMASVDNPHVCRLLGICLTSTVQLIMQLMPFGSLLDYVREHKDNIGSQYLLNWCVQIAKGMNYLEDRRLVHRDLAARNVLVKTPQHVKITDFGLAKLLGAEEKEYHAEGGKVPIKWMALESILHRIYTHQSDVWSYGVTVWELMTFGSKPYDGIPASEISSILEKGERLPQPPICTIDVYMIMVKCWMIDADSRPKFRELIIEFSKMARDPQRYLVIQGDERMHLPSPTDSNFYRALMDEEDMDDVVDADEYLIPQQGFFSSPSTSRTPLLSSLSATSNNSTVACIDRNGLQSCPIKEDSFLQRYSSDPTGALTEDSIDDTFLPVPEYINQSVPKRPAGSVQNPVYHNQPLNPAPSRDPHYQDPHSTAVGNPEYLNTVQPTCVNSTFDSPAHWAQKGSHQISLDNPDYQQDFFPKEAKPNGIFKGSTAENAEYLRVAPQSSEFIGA

| Compound | IC50 [1, 6] [nM] | IC50 [1, 7] [nM] | IC50 [2, 8] [nM] | IC50 [2, 9] [nM] | IC50 [3, 10] [nM] | IC50 [3, 11] [nM] | IC50 [4, 12] [nM] | IC50 ([4]; IC50 WT (nM), 100 μM ATP) [nM] | IC50 [5, 13] [nM] | IC50 [5, 14] [nM] |
| --- | --- | --- | --- | --- | --- | --- | --- | --- | --- | --- |
| CC1(CO)CCN(c2cc(Nc3ccnc(-c4cnn(S(=O)(=O)C5CC5)c4)n3)ncc2C#CC2CC2)CC1 [Example 250, (1-(5-(Cyclopropylethynyl)-2-((2-(1-(cyclopropylsulfonyl)-1H-pyrazol-4-yl)pyrimidin-4-yl)amino)pyridin-4-yl)-4-methylpiperidin-4-yl)methanol] | 0.7 | 0.7 | 2 | 2.8 | 0.4 | 0.9 | 15 | > 10000 | 6.6 | 74.7 |
| CC1(CO)CCN(c2cc(Nc3ccnc(-c4cnn(S(=O)(=O)C5CC5)c4)n3)ncc2C#CC2CCCC2)CC1 [Example 251, (1-(5-(Cyclopentylethynyl)-2-((2-(1-(cyclopropylsulfonyl)-1H-pyrazol-4-yl)pyrimidin-4-yl)amino)pyridin-4-yl)-4-methylpiperidin-4-yl)methanol] | 3 | 3.3 | 8.7 | 15.9 | 1.4 | 5.3 | 72.6 | > 10000 | 41.5 | 397 |
| CC1(CO)CCN(c2cc(Nc3ccnc(-c4cnn(S(=O)(=O)C5CC5)c4)n3)ncc2C#CC2CCCCC2)CC1 [Example 252, (1-(5-(Cyclohexylethynyl)-2-((2-(1-(cyclopropylsulfonyl)-1H-pyrazol-4-yl)pyrimidin-4-yl)amino)pyridin-4-yl)-4-methylpiperidin-4-yl)methanol] | 8.5 | 7.9 | 35.9 | 39.9 | 4.3 | 15.9 | 235 | > 10000 | 100 | 2080 |
| CC1(CO)CCN(c2cc(Nc3ccnc(-c4cnn(S(=O)(=O)C5CC5)c4)n3)ncc2C#Cc2ccc(CN3CCOCC3)cc2)CC1 [Example 253, (1-(2-((2-(1-(Cyclopropylsulfonyl)-1H-pyrazol-4-yl)pyrimidin-4-yl)amino)-5-((4-(morpholinomethyl)phenyl)ethynyl)pyridin-4-yl)-4-methylpiperidin-4-yl)methanol] | 5.3 | 3.3 | 4.2 | 7.1 | 3.1 | 4.4 | 23.9 | > 10000 | 9.8 | 81.2 |
| CC1(CO)CCN(c2cc(Nc3ccnc(-c4cnn(S(=O)(=O)C5CC5)c4)n3)ncc2C#Cc2ccccc2)CC1 [Example 256, (1-(2-((2-(1-(Cyclopropylsulfonyl)-1H-pyrazol-4-yl)pyrimidin-4-yl)amino)-5-(phenylethynyl)pyridin-4-yl)-4-methylpiperidin-4-yl)methanol] | – | 20.6 | – | 7.6 | – | 17.7 | – | > 10000 | – | 67.3 |
| CC1(CO)CCN(c2cc(Nc3ccnc(-c4cnn(S(=O)(=O)C5CC5)c4)n3)ncc2C#Cc2ccccc2F)CC1 [Example 257, (1-(2-((2-(1-(Cyclopropylsulfonyl)-1H-pyrazol-4-yl)pyrimidin-4-yl)amino)-5-((2-fluorophenyl)ethynyl)pyridin-4-yl)-4-methylpiperidin-4-yl)methanol] | – | 19.4 | – | 10.7 | – | 23.1 | – | > 10000 | – | 143 |

The next compounds have a lower IC50 [1, 7] than those just listed; values first:

| IC50 [1, 6] [nM] | IC50 [1, 7] [nM] | IC50 [2, 8] [nM] | IC50 [2, 9] [nM] | IC50 [3, 10] [nM] | IC50 [3, 11] [nM] | IC50 [4, 12] [nM] | IC50 ([4]; IC50 WT (nM), 100 μM ATP) [nM] | IC50 [5, 13] [nM] | IC50 [5, 14] [nM] | Compound |
| --- | --- | --- | --- | --- | --- | --- | --- | --- | --- | --- |
| 0.1 | 0.2 | 0.3 | 0.4 | 0.1 | 0.2 | 0.9 | 248 | 2.1 | 1.3 | CN(C)Cc1ccc(C#Cc2cnc(Nc3ccnc(-c4cnn(S(=O)(=O)C5CC5)c4)n3)cc2N2CCC(C)(CO)CC2)cc1 [Example 254, (1-(2-((2-(1-(Cyclopropylsulfonyl)-1H-pyrazol-4-yl)pyrimidin-4-yl)amino)-5-((4-((dimethylamino)methyl)phenyl)ethynyl)pyridin-4-yl)-4-methylpiperidin-4-yl)methanol] |
| 1.3 | 0.2 | 0.3 | 0.4 | 0.1 | 0.3 | 1 | 376 | 1.4 | 1.2 | CN(C)Cc1cccc(C#Cc2cnc(Nc3ccnc(-c4cnn(S(=O)(=O)C5CC5)c4)n3)cc2N2CCC(C)(CO)CC2)c1 [Example 255, (1-(2-((2-(1-(Cyclopropylsulfonyl)-1H-pyrazol-4-yl)pyrimidin-4-yl)amino)-5-((3-((dimethylamino)methyl)phenyl)ethynyl)pyridin-4-yl)-4-methylpiperidin-4-yl)methanol] |
| 0.3 | 0.5 | 0.7 | 0.5 | 0.1 | 0.5 | 5 | 5310 | 1.8 | 7.7 | CC1(CO)CCN(c2cc(Nc3ccnc(-c4cnn(S(=O)(=O)C5CC5)c4)n3)ncc2C#Cc2ccncc2)CC1 [Example 258, (1-(2-((2-(1-(Cyclopropylsulfonyl)-1H-pyrazol-4-yl)pyrimidin-4-yl)amino)-5-(pyridin-4-ylethynyl)pyridin-4-yl)-4-methylpiperidin-4-yl)methanol] |
| 0.6 | 0.5 | 0.5 | 1.2 | 0.3 | 0.5 | 5.3 | 3400 | 1.2 | 36 | CC1(CO)CCN(c2cc(Nc3ccnc(-c4cnn(S(=O)(=O)C5CC5)c4)n3)ncc2C#Cc2ccccn2)CC1 [Example 259, (1-(2-((2-(1-(Cyclopropylsulfonyl)-1H-pyrazol-4-yl)pyrimidin-4-yl)amino)-5-(pyridin-2-ylethynyl)pyridin-4-yl)-4-methylpiperidin-4-yl)methanol] |
| 0.5 | 0.4 | 0.3 | 0.5 | 0.2 | 0.3 | 2.1 | 832 | 1 | 10.8 | CC1(CO)CCN(c2cc(Nc3ccnc(-c4cnn(S(=O)(=O)C5CC5)c4)n3)ncc2C#Cc2cccnc2)CC1 [Example 260, (1-(2-((2-(1-(Cyclopropylsulfonyl)-1H-pyrazol-4-yl)pyrimidin-4-yl)amino)-5-(pyridin-3-ylethynyl)pyridin-4-yl)-4-methylpiperidin-4-yl)methanol] |
| 1.2 | 0.6 | 1.3 | 1 | 0.5 | 0.6 | 6.2 | 2500 | 1.3 | 4.2 | CC1(CO)CCN(c2cc(Nc3ccnc(-c4cnn(S(=O)(=O)C5CC5)c4)n3)ncc2C#Cc2cccc(C(=O)N3CCOCC3)c2)CC1 [Example 261, (3-((6-((2-(1-(Cyclopropylsulfonyl)-1H-pyrazol-4-yl)pyrimidin-4-yl)amino)-4-(4-(hydroxymethyl)-4-methylpiperidin-1-yl)pyridin-3-yl)ethynyl)phenyl)(morpholino)methanone] |
